Experimental data reported in patent US8741955B2, “D-serine transporter inhibitors as pharmaceutical compositions for the treatment of central nervous system disorders” (Allergan, Inc., priority 2011, dated 2014).

Experiments:
human ASCT2 = molecular target: T1, human ASCT2 (Homo sapiens, UniProt Q15758); test: transport into HEK cells expressing ASCT2; assay type: cell-based
T1 construct: expressed in transfected cells; host or cells: HEK (human embryonic kidney) cells
T1 sequence (Q15758 1-541): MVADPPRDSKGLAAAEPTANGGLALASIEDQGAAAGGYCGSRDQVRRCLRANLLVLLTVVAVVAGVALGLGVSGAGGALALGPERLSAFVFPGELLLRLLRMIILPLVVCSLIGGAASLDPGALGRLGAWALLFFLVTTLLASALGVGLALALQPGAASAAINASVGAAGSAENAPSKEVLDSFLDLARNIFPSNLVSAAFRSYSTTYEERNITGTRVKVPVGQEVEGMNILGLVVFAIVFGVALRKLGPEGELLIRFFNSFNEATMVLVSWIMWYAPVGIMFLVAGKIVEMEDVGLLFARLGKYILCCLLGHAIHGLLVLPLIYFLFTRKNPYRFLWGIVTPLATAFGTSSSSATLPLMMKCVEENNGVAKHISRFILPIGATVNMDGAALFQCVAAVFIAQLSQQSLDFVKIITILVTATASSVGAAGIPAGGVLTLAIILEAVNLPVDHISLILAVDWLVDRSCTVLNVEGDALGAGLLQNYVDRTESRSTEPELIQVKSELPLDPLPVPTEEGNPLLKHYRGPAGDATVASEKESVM
Method: Cell-based assays: the transport of [^3H]L- or D-serine was measured in primary cultures of rat hippocampal astrocytes or in human embryonic kidney (HEK) cells expressing ASCT transporter sub-types. For the astrocyte assays, cells were plated on either 24- or 96-well plates at a density of 50,000 cells per well. For the HEK assays, cells were plated on coated 96-well plates at a density of 80,000 cells/well. Assays were conducted in duplicate at room temperature in assay buffer consisting of: NaCl: 150 mM, KCl: 2 mM; MgCl2: 1 mM; CaCl2: 1 mM; HEPES: Tris buffer: 10 mM, pH7.4. To assess the sodium-dependence of transport, NaCl was replaced in the assay buffer by equimolar choline chloride. Following aspiration of growth medium and 2 washes with assay buffer, cells were incubated with [^3H]L- or D-serine at a final concentration of 1 μM for 5 min (astrocytes) or 1 min (HEK cells), after which the incubation medium was aspirated and the cells washed twice with ice-cold assay buffer. Cells containing radiolabel were solubilized in 100 μl of 1% Triton-X100 and an aliquot counted in a beta counter. IC50 values were determined over a range of at least 6 concentrations and derived from curve-fitting algorithms available in GraphPad Prism 4.

schizophrenic patients = conditions: added on to traditional antipsychotic drugs; Labrie and Roder, 2010; cited from earlier work
[1] = system: amphetamine-induced hyperlocomotion in mice; test: amphetamine induced hyperactivity; assay type: in vivo; conditions: systemic administration, amphetamine 2 mg/kg s.c.
Method: C57B/6 male mice (n=5-10/group) were placed in an open field apparatus and their activity was measured for 30 minutes. At 30 minutes, they received a vehicle injection or injection of test compound followed by an injection of amphetamine (2 mg/kg, s.c.) at minute 45. Their activity levels were subsequently measured for another 1 hour post-injection. Total activity for each 5 minute bin (21 total bins) was added to establish the activity curve over the 105 minute testing.

[2] = system: NMDA receptor-mediated excitatory postsynaptic currents (EPSCNMDA); test: electrophysiological recording of NMDA receptor-mediated EPSCs in rat hippocampal slices
Method: […] thick hippocampal slices were prepared from […] rats using Leica VT1000S-microtome. Slices were perfused with ACSF containing: 121 mM NaCl, 2.5 mM KCl, 2.0 mM Mg2SO4, 2.0 CaCl2, 1 mM NaH2PO4, 26.2 NaHCO3, and 11 mM glucose, which was equilibrated with 5% CO2/95% O2. Experiments were performed in a recording chamber on the stage of an Olympus BX-61wi microscope with infrared DIC optics for visualizing whole-cell patch-clamp recordings. EPSPs were recorded from CA1 pyramidal neurons by stimulating the Schaffer collateral-commissural pathway using a bipolar tungsten electrode. The recording pipettes were filled with regular ICM containing: 120 mM Cs-gluconate, 5 mM NaCl, 10 mM KCl, 0.1 mM CaCl2, 1 mM EGTA, 2 mM MgCl2, 10 mM HEPES, 2 mM Na-ATP, 2 mM Na2-phosphocreatine, and 0.25 mM Na-GTP, pH 7.3 (290 mOsm).
To measure NMDA-mediated EPSCs, extracellular Mg2SO4 was lowered to 0.2 mM and 2 μM NBQX and 100 μM picrotoxin were added in the ACSF. 1 μM 7-CKY (7-chlorokynurenic acid) was added to improve the sensitivity of […] to D-serine.

inhibition of [3H]L-serine transport in ASCT2-expressing HEK cells (human ASCT2)	percentage increase in the amplitude of EPSCNMDA ([2]; 1000 μM, in presence of 1 μM 7-CKY, representative experiment) [%]	Structure (SMILES)	efficacy in clinical trials of schizophrenic patients (schizophrenic patients)	effect on amphetamine-induced hyperactivity/hyperlocomotion [1]	duration of potentiation of EPSCNMDA ([2]; 1000 μM, representative experiment)	effect on NMDA receptor mediated EPSCs in CA1 region of the hippocampus ([2]; rat hippocampal slice)
completely inhibited	–	N[C@H](CO)C(=O)O [D-serine]	has shown efficacy	–	–	–
–	22	N[C@H](C(=O)O)c1ccc(O)cc1 [L-4-hydroxyphenylglycine]	–	reduced amphetamine-induced hyperactivity in a dose-dependent manner	lasted for one hour and then returned to baseline in control buffer	potentiated NMDA receptor mediated excitatory post-synaptic currents
